In this experiment the target is T1, MOR42-3 (Mus musculus, UniProt E9PX47).
T1 sequence (E9PX47 1-334): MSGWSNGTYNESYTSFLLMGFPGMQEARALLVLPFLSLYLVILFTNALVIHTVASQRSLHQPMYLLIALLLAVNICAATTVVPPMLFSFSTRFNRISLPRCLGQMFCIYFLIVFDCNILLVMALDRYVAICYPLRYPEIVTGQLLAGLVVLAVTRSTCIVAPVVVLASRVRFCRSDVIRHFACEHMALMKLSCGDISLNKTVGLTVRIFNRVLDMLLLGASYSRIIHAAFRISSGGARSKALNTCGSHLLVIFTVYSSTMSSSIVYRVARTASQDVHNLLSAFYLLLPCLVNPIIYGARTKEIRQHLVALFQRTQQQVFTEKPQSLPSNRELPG
The experiment is described as follows: CRE luciferase reporter assay in Hana3A cells. The experiment is classed as cell-based.

Our source for the EC50 values is paper PMC8931335 (Proceedings of the National Academy of Sciences of the …, 2022).

`O=C(O)CCCCCCCC(=O)O` [NA]: the response was half-maximal at 29.4 ± 12.8 µM (EC50).
